Data from patent US20260308186A1, “STAT DEGRADERS AND USES THEREOF” (Recludix Pharma, Inc., priority 2023, published 2026).
Where two headings read alike, the source gives them in different places.

Columns and labels:
pSTAT3 = biological target: T1, pSTAT3 (Homo sapiens, UniProt P40763); assay: MSD-pSTAT-PBMC Assay, pSTAT3 (IL-6 stimulated PBMC); assay type: cell-based; conditions: read-out: pSTAT3 IC50, compound 3 hrs, then 10 ng/mL IL-6 for 10 min, pY705-STAT3
T1 construct: pY705-STAT3 MSD read-out
T1 sequence (P40763 whole entry): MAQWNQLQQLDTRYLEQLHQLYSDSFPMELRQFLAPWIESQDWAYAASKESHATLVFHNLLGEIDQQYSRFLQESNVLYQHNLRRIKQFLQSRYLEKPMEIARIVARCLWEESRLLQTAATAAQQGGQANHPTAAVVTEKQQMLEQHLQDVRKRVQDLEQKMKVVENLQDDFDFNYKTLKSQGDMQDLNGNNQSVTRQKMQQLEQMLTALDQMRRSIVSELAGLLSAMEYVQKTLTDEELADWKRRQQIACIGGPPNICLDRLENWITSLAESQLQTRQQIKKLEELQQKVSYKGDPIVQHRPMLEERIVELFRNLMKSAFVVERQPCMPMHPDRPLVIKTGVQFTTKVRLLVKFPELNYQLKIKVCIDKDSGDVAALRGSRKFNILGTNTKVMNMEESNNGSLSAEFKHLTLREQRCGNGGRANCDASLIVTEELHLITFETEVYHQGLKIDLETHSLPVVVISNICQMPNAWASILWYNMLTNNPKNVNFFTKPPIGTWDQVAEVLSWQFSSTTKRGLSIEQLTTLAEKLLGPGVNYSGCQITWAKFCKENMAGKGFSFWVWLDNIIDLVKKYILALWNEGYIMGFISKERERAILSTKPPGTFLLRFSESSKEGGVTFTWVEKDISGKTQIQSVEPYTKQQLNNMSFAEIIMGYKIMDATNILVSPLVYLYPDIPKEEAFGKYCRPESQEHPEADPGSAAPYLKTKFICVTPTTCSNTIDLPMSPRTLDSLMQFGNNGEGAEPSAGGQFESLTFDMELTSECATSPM
Excerpt: Cryopreserved Peripheral Blood Mononuclear Cells (PBMC) are from AllCells. Recombinant Human IL-4 and IL-6 are from Peprotech. Mouse monoclonal anti-STAT3 antibody, rabbit monoclonal anti-pY705-STAT3 antibody, rabbit monoclonal Anti-pY641-STAT6 antibody, and lysis buffer are from Cell Signaling Technology (CST). Mouse monoclonal anti-STAT6 antibody is from BioLegend. Assay plates, blocker, and anti-rabbit secondary antibody are from Meso Scale Discovery (MSD).
Cryopreserved PBMCs were thawed out and allowed to recover overnight in IMDM+10% heat-inactivated FBS prior to plating 50,000 (STAT3) or 25,000 (STAT6) cells per well in 96-well U-bottom tissue culture plates. Cells were treated with compound for 3 hrs. then stimulated with 10 ng/mL IL-6 (STAT3) or 1 ng/mL IL-4 (STAT6) for 10 min. Cells were then spun down and washed with ice-cold PBS prior to lysing the cell pellet with 1× lysis buffer (CST) with 1×HALT protease and phosphatase inhibitor cocktail (Thermo). Lysates were transferred to and incubated overnight at 4° C. with shaking in QuickPlex 96-well high bind assay plates (MSD) pre-coated overnight with 30 μL per well of 0.6 μg/mL mouse monoclonal anti-STAT3 antibody (STAT3) or 2 μg/mL mouse monoclonal anti-STAT6 antibody (STAT6) in 1×PBS, and pre-blocked for 1 hour with 3% Blocker-A (MSD). Captured protein in the assay plates were then washed and probed with 25 μL per well of 0.25 μg/ml rabbit monoclonal anti-pY705-STAT3 antibody (STAT3) or 0.18 μg/ml rabbit monoclonal Anti-pY641-STAT6 antibody (STAT6) in 1% Blocker-A for 1 hour at room temperature with shaking, then washed and probed with 25 ul per well of 1 ug/ml Sulfo-TAG Labeled Goat Anti-Rabbit Antibody (MSD) in 1% Blocker-A for 1 hour at room temperature with shaking. Assay plates were then washed and 150 μL of 1× Read Buffer-T (MSD) was added to each well prior to reading on an SQ120 MSD Plate Reader. Assay signal from each sample was subtracted by the signal from unstimulated control wells and normalized to DMSO control wells. IC50 values were calculated using Graph Pad Prism Dose-Response Nonlinear Regression with variable slope. For both pSTAT3 and pSTAT6 A=≤100 nM; B=>100-1000 nM; C=>1000-3000 nM; and D=>3 μM.

pSTAT6 = biological target: T2, pSTAT6 (Homo sapiens, UniProt P42226); assay: MSD-pSTAT-PBMC Assay, pSTAT6 (IL-4 stimulated PBMC); assay type: cell-based
T2 construct: pY641-STAT6 MSD read-out
T2 sequence (P42226 1-847): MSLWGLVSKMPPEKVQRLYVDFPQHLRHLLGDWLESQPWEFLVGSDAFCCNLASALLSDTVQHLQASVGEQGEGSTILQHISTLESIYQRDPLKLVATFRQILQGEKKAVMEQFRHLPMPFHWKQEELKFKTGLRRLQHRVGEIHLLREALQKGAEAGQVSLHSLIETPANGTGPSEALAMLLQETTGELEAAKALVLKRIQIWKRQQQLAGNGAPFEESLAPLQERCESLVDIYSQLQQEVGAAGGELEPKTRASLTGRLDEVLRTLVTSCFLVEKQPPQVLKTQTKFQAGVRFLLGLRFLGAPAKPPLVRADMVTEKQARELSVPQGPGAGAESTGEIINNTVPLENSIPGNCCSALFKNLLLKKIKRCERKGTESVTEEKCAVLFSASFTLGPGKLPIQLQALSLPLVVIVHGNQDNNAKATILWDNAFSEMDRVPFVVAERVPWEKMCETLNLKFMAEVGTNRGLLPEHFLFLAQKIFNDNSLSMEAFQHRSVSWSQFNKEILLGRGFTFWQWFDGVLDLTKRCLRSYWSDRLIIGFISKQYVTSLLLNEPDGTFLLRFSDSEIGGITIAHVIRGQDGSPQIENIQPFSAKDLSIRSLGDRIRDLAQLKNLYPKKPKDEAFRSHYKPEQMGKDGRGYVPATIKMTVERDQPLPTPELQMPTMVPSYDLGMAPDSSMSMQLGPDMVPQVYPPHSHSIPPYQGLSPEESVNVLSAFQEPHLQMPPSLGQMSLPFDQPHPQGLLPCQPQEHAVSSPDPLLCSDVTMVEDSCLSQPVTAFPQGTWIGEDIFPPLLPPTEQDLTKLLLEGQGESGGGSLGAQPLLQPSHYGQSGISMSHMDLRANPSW
Outline: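 Human PBMC were recovered overnight, treated 3 h with compound, then stimulated for 10 min with 10 ng/mL IL-6 (pSTAT3) or 1 ng/mL IL-4 (pSTAT6). Lysates were read by MSD sandwich immunoassay, with total STAT capture and pY705-STAT3 or pY641-STAT6 detection. Signal minus unstimulated wells was normalized to DMSO, and IC50 came from a variable-slope fit.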

STAT6 = biological target: T3, STAT6 (Homo sapiens, UniProt P42226); assay: STAT6 Fluorescence Polarization (FP) Assay; assay type: binding; conditions: recombinant STAT6(W123-T658) 250 nM; probe 5-FAM-Ap[…]-NH2 2 nM; 45 min, room temperature; read-out: STAT6 FP IC50
T3 construct: Recombinant STAT6 protein (STAT6(W123-T658))
T3 sequence (P42226 123-658): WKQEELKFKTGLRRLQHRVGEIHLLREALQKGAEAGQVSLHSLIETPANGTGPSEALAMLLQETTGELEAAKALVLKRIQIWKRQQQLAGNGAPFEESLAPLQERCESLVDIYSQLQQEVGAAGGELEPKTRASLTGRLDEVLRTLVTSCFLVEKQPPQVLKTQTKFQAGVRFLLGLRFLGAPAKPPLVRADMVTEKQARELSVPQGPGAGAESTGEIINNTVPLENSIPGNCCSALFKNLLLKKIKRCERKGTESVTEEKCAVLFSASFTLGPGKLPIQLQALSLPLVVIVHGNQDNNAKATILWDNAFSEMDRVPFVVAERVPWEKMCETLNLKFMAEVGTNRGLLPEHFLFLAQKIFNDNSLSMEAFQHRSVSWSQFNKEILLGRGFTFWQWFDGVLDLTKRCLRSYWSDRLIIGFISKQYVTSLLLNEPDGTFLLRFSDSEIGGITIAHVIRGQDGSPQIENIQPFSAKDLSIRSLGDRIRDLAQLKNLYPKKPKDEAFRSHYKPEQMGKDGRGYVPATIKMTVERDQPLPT
Description: STAT6 Fluorescence Polarization (FP) Assay
An FP assay was developed to determine IC50 values for test substances. Recombinant STAT6 protein (STAT6(W123-T658)) at 250 nM was combined with a fluorescently labeled, phosphotyrosine peptide probe (5-FAM-Ap[…]-NH2) at 2 nM in FP buffer (10 mM HEPES pH 7.4, 50 mM NaCl, 1 mM EDTA, 0.05% Tween 20, 2 mM DTT), 50 μL of STAT6-probe mixture was added to serial diluted compounds in black, 96-well plates (Greiner BioOne 655076) to a final concentration of 1% DMSO. Reaction components were mixed, and FP was measured after 45-minute incubation at room temperature using a Tecan Spark multimode plate reader. FP signal (mP) was plotted against the log concentration of the test substances and IC50 values were calculated by nonlinear regression analysis using GraphPad Prism software. For STAT6 FP assay. A=≤300 nM; B=>300-3000 nM; C=>3-30 μM; and D=>30 μM.

STAT3 = biological target: T4, STAT3 (Homo sapiens, UniProt P40763); assay: STAT3 Fluorescence Polarization (FP) Assay; assay type: binding; conditions: recombinant STAT3 25 nM; probe 5-FAM-GpYLPQTV-NH2 2 nM; 45 min, room temperature; read-out: STAT3 FP IC50
T4 construct: Recombinant STAT3 protein (STAT3(G127-1722))
T4 sequence (P40763 127-722 limits assumed): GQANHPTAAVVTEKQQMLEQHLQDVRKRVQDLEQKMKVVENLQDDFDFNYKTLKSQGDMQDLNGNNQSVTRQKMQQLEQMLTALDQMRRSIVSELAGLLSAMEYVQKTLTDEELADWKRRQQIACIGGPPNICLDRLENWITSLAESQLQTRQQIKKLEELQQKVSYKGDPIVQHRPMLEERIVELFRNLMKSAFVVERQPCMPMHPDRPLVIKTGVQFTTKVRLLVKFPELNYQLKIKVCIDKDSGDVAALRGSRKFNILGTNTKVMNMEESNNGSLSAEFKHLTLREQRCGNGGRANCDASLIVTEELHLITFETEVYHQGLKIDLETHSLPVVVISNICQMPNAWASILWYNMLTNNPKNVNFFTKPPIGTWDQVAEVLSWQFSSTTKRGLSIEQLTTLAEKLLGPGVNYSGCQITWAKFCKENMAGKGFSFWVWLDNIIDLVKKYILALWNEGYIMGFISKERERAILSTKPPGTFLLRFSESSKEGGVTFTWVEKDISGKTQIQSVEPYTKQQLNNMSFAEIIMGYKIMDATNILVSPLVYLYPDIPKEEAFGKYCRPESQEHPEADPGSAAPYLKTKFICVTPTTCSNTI

[1] = read-out: pSTAT6 IC50, compound 3 hrs, then 1 ng/mL IL-4 for 10 min, pY641-STAT6
[2] = compound 3 hrs, then 1 ng/mL IL-4 for 10 min, pY641-STAT6, read-out: pSTAT6 IC50

| Structure (SMILES) | IC50 (pSTAT3) | IC50 (pSTAT6; [1]) | IC50 (pSTAT6; [2]) | IC50 (STAT6) | IC50 (STAT3) |
| --- | --- | --- | --- | --- | --- |
| CN(C(=O)[C@@H]1CC[C@@H]2CCN(C(=O)CCCCCC#Cc3cccc4c3CN(C3CCC(=O)NC3=O)C4=O)C[C@H](NC(=O)c3cc4cc(C(F)(F)P(=O)(OCOC(=O)C(C)(C)C)OCOC(=O)C(C)(C)C)ccc4[nH]3)C(=O)N21)c1ccccc1 (stereo partly drawn) [Compound 2, ((((2-(((5S,8S,10aR)-3-(8-(2-(2,6-Dioxopiperidin-3-yl)-1-oxoisoindolin-4-yl)oct-7-ynoyl)-8-(methyl(phenyl)carbamoyl)-6-oxodecahydropyrrolo[1,2-a][1,5]diazocin-5-yl)carbamoyl)-1H-indol-5-yl)difluoromethyl)phosphoryl)bis(oxy))bis(methylene) bis(2,2-dimethylpropanoate)] | 1 to 3 µM | 1 to 3 µM |  |  |  |
| CC(=O)N1CC[C@H]2CC[C@@H](C(=O)Nc3ccc(-c4ccc(NC(=O)CCCCCC#Cc5cccc6c5CN(C5CCC(=O)NC5=O)C6=O)cc4)cc3)N2C(=O)[C@@H](NC(=O)c2cc3cc(C(F)(F)P(=O)(OCOC(=O)C(C)(C)C)OCOC(=O)C(C)(C)C)ccc3[nH]2)C1 (stereo partly drawn) [Compound 4, ((((2-(((5S,8S,10aR)-3-acetyl-8-((4′-(8-(2-(2,6-dioxopiperidin-3-yl)-1-oxoisoindolin-4-yl)oct-7-ynamido)-[1,1′-biphenyl]-4-yl)carbamoyl)-6-oxodecahydropyrrolo[1,2-a][1,5]diazocin-5-yl)carbamoyl)-1H-indol-5-yl)difluoromethyl)phosphoryl)bis(oxy))bis(methylene) bis(2,2-dimethylpropanoate)] | 1 to 3 µM | > 3 µM |  |  |  |
| Cc1ccc2onc(C(=O)N3CC[C@H]4CC[C@@H](C(=O)N5CCN(c6cccc7c6[nH]c(=O)n7C6CCC(=O)NC6=O)CC5)N4C(=O)[C@@H](NC(=O)c4ccc5ccc(C(F)(F)P(=O)(O)O)cc5c4)C3)c2c1 (stereo partly drawn) [Compound 36, ((7-(((5S,8S,10aR)-8-(4-(1-(2,6-dioxopiperidin-3-yl)-2-oxo-2,3-dihydro-1H-benzo[d]imidazol-4-yl)piperazine-1-carbonyl)-3-(5-methylbenzo[d]isoxazole-3-carbonyl)-6-oxodecahydropyrrolo[1,2-a][1,5]diazocin-5-yl)carbamoyl)naphthalen-2-yl)difluoromethyl)phosphonic acid] |  |  | > 3 µM | < 0.3 µM | 1 to 10 µM |
| Cc1ccc2onc(C(=O)N3CC[C@H]4CC[C@@H](C(=O)N5CCN(c6ccc7[nH]c(=O)n(C8CCC(=O)NC8=O)c7c6)CC5)N4C(=O)[C@@H](NC(=O)c4ccc5ccc(C(F)(F)P(=O)(O)O)cc5c4)C3)c2c1 (stereo partly drawn) [Compound 37, ((7-(((5S,8S,10aR)-8-(4-(3-(2,6-dioxopiperidin-3-yl)-2-oxo-2,3-dihydro-1H-benzo[d]imidazol-5-yl)piperazine-1-carbonyl)-3-(5-methylbenzo[d]isoxazole-3-carbonyl)-6-oxodecahydropyrrolo[1,2-a][1,5]diazocin-5-yl)carbamoyl)naphthalen-2-yl)difluoromethyl)phosphonic acid] |  |  | > 3 µM | < 0.3 µM | > 10 µM |
| CCCC(=O)SCCOP(=O)(OCCSC(=O)CCC)C(F)(F)c1ccc2sc(C(=O)N[C@H]3CN(C(=O)CCCCCC#Cc4cccc5c4CN(C4CCC(=O)NC4=O)C5=O)CC[C@H]4CC[C@@H](C(=O)N5CC(c6cnccc6N(C)C)C5)N4C3=O)cc2c1 (stereo partly drawn) [Compound 38, S,S′-(((((2-(((5S,8S,10aR)-8-(3-(4-(dimethylamino)pyridin-3-yl)azetidine-1-carbonyl)-3-(8-(2-(2,6-dioxopiperidin-3-yl)-1-oxoisoindolin-4-yl)oct-7-ynoyl)-6-oxodecahydropyrrolo[1,2-a][1,5]diazocin-5-yl)carbamoyl)benzo[b]thiophen-5-yl)difluoromethyl)phosphoryl)bis(oxy))bis(ethane-2,1-diyl)) dibutanethioate] | < 0.1 µM |  |  |  |  |
| Cc1ccc2onc(C(=O)N3CC[C@H]4CC[C@@H](C(=O)N(C)CCCCCCC#Cc5cccc6c5CN(C5CCC(=O)NC5=O)C6=O)N4C(=O)[C@@H](NC(=O)c4ccc5ccc(C(F)P(=O)(O)O)cc5c4)C3)c2c1 (stereo partly drawn) [Compound 40, ((7-(((5S,8S,10aR)-8-((8-(2-(2,6-dioxopiperidin-3-yl)-1-oxoisoindolin-4-yl)oct-7-yn-1-yl)(methyl)carbamoyl)-3-(5-methylbenzo[d]isoxazole-3-carbonyl)-6-oxodecahydropyrrolo[1,2-a][1,5]diazocin-5-yl)carbamoyl)naphthalen-2-yl)fluoromethyl)phosphonic acid] |  |  | > 3 µM | < 0.3 µM | > 10 µM |
